The values that follow come from publication PMC5064022, “KCNE1 induces fenestration in the Kv7.1/KCNE1 channel complex that allows for highly specific pharmacological targeting” (Nature Communications, 2016).

Format in all cases: cell-based
For test [1], the target named is T1, Kv7.1/KCNE1 (Homo sapiens, UniProt P15382+P51787). Briefly: Two electrode voltage clamp of Kv7.1/KCNE1 currents in Xenopus oocytes. As to conditions: 10 µM; percent change in current amplitude at end of pulse to +40 mV. The method, then:
Template cDNAs (wildtype or mutant human Kv7.1 in pSGEM, wildtype human KCNE1 in pSP64) were linearized with a suitable restriction enzyme (Nhe I/pSGEM, Eco RI/pSP64). cRNA was synthesized from 1 μg linearized cDNA by in vitro transcription (mMessage mMachine T7 or SP6 kit, Ambion, Life Technologies Darmstadt, Germany). cRNA concentrations were determined by photometry (Nanodrop, Peqlab, Erlangen, Germany) and cRNA quality was checked by agarose gel electrophoresis.
Oocytes were commercially obtained from EcoCyte Bioscience (Castrop-Rauxel, Germany). Injection of stage 4 or 5 oocytes was performed using a nanoliter injector 2000 (WPI, Berlin, Germany). For standard pharmacological measurements, each oocyte was injected with 5 ng Kv7.1 cRNA alone or with 1 ng KCNE1 cRNA. To investigate the influence of KCNE1 on AC-1 sensitivity of Kv7.1 tetramers, 5 ng Kv7.1 cRNA was injected with different amounts of KCNE1 cRNA (0 ng, 0.005 ng, 0.05 ng, 0.5 ng and 5 ng). Injected oocytes were maintained in an incubator at 17 °C for 4–5 days in standard Barth solution (EcoCyte Bioscience, Castrop-Rauxel, Germany) supplemented with 90 μg ml^−1 theophylline, 63 μg ml^−1 penicillin, 40 μg ml^−1 streptomycin, and 100 μg ml^−1 gentamycin until used for two electrode voltage clamp (TEVC) measurements.
TEVC measurements were performed using a TurboTec-10CD amplifier (npi Electronic, Tamm, Germany) and an ITC-16 AD/DA-interface (Instrutech Corporation, Port Washington, New York, USA). Pulse and PulseFit software (HEKA, Lambrecht/Pfalz, Germany) was used for data acquisition and analysis. During TEVC recordings, oocytes were constantly perfused with control solution (ND96, containing in mM: 96 NaCl, 4 KCl, 1.8 CaCl2, 1 MgCl2, 5 mM HEPES, pH 7.6 supplemented 0.1–0.3% DMSO). AC solutions were freshly prepared in ND96 from a 10 mM DMSO stock solution. Glass capillaries were pulled to a fine point to produce current and voltage electrodes that were back-filled with 3 M KCl. When filled with this solution, electrode resistances ranged from 0.5–1.5 MΩ. Different voltage pulse protocols were used as follows: (1) To study the inhibitory effect of different AC derivatives, Kv7.1/KCNE1 currents were elicited by repetitive 7 s pulses to +40 mV applied every 30 s from a holding potential of −80 mV. (2) To analyse the voltage dependence of channel activation, currents were elicited by 10 s pulses to test voltages between −100 and +60 mV, applied in 20 mV increments from a holding potential of −80 mV. Tail currents were recorded at −120 mV. For control we always expressed KCNE1 alone along mutant channels and mutant currents were only taken into account when it reached at least 2.5- to 3-fold the size of the background Xenopus-Kv7.1/hKCNE1 currents.
Electrophysiological data were analysed using PulseFit software (HEKA, Lambrecht/Pfalz, Germany) and GraphPad Prism (GraphPad Software, Inc., La Jolla, California, USA). Channel inhibition was determined as reduction of whole cell current amplitude at the end of a 7 s test pulse to +40 mV. The concentration of compound that caused half-maximal inhibition (IC50) were determined using the Hill equation: Idrug/Imax=1/(1+[C/IC50]^H), where Idrug is the current amplitude in the presence of the drug, Imax is the current amplitude before drug application, C is the drug concentration and H is the Hill coefficient.
A general note: In two-electrode clamp one electrode senses voltage and the other passes current.

Another test has as its system homomeric Kv7.1 channels. The experiment in a line: AC-10 on homomeric Kv7.1 channels.
Test [2] has as its target T1, Kv7.1/KCNE1. The experiment in a line: Current inhibition in CHO cells stably expressing Kv7.1/KCNE1. As to the method:
Figure 5 PAL-based approach to identify AC binding site. (a) Schematic view of the PAL-based approach to investigate the binding site of AC-1. (b) Concentration-response curve for AC-10, the UV-active diazirine derivate of AC-1. The inhibitory effect of AC-10 was determined in CHO cells stably expressing Kv7.1/KCNE1. Inhibition was determined as percent change in current amplitude at the end of the depolarizing test pulse to +40 mV (±s.e.m.). (c) A new cDNA-construct (Kv7.1myc-2A-KCNE1myc in pXOOM) allows for functional expression of myc-tagged Kv7.1 and KCNE1 in HEK293T cells. In this construct, cDNAs of Kv7.1 and KCNE1 are linked via the T2A peptide sequence, which mediates co-translational protein cleavage. (d) Western blot analysis of affinity purified Kv7.1 and KCNE1 proteins. Kv7.1myc was purified using myc-agarose beads KCNE1 was purified using anti-KCNE1 coupled protein-A-sepharose beads (right). In both western blots, ‘+' indicates transfected cells, ‘−' indicates non-transfected control cells. Antibodies used for affinity purification are detected in ‘+' and ‘−'. […] It should be noted, that KCNE1, as a myc-tagged protein, should also be purified using the myc-agarose beads. […] Thus, KCNE1 expression was instead proven using the KCNE1 antibody. (e) Functional expression of Kv7.1myc-2A-KCNE1myc in HEK293T cells (scale bars indicate 1 nA, 1 s).

The next test deals with Kv7.1/KCNE1 channels. Briefly: Reversibility of AC-10 current inhibition by washout, with or without UV irradiation.

With `Cc1cc(Cl)ccc1OC(C)(C)C(=O)NC1C2CC3CC1CC(NS(=O)(=O)N(C)C)(C3)C2` (stereo not shown) [AC-7], 10 µM produced 38 ± 4.4% inhibition against Kv7.1/KCNE1 [1].

For `Cc1cc(Cl)ccc1OC(C)(C)C(=O)NC1C2CC3CC1CC(NC(=O)CC(C)C)(C3)C2` (stereo not shown) [AC-9], at Kv7.1/KCNE1 [1], testing at 10 µM gave an inhibition of 78.6 ± 3.3%.

As to `Cc1cc(Cl)ccc1OC(C)(C)C(=O)NC1C2CC3CC1CC(NS(C)(=O)=O)(C3)C2` (stereo not shown) [AC-2], the inhibition (in general, the change of the read-out against control, counted positive when it falls) at 10 µM at Kv7.1/KCNE1 [1] is 86.8 ± 3%.

With `Cc1cc(Cl)ccc1OC(C)(C)C(=O)NC1C2CC3CC1CC(C(=O)O)(C3)C2` (stereo not shown) [AC-6], the inhibition at 10 µM against Kv7.1/KCNE1 [1] was found to be 64.6 ± 6.6%.

In turn, `CCOC(=O)NC12CC3CC(C1)C(NC(=O)C(C)(C)Oc1ccc(Cl)cc1C)C(C3)C2` (stereo not shown) [AC-8] came in with an inhibition at 10 µM against Kv7.1/KCNE1 [1] of 74.5 ± 6.2%.

At Kv7.1/KCNE1 [1], `Cc1cc(Cl)ccc1OC(C)(C)C(=O)NC1[C@@H]2CC3C[C@H]1CC(N)(C3)C2` (stereo partly shown) [AC-4, N-[(1 R,3 S)-5-amino-2-adamantyl]-2-(4-chloro-2-methyl-phenoxy)-2-methyl-propanamide] yielded an inhibition at 10 µM of 4.2 ± 6.1%.

At Kv7.1/KCNE1 [1], `Cc1cc(Cl)ccc1OC(C)(C)C(=O)NC1C2CC3CC1CC(O)(C3)C2` (stereo not shown) [AC-5] had an inhibition at 10 µM of 40.9 ± 1.4%.

For `Cc1cc(Cl)ccc1OC(C)(C)C(=O)NC1[C@@H]2CC3C[C@H]1CC(NC(=O)CCC1(C)N=N1)(C3)C2` (stereo partly shown) [AC-10, 2-(4-chloro-2-methyl-phenoxy)-2-methyl-N-[(1 R,3 S)-5-[3-(3-methyldiazirin-3-yl)propanoylamino]-2-adamantyl]propanamide], in the test with homomeric Kv7.1 channels, the “inhibition of homomeric Kv7.1 channels” value was “did not inhibit”. In addition, the Hill-coeff. at Kv7.1/KCNE1 [2] was found to be 1.7. Moreover, inhibition against Kv7.1/KCNE1 [2] (+40 mV) was half-maximal at 16 nM (IC50). The figures for the “inhibition after 38 min washout” value in the test with Kv7.1/KCNE1 channels (after UV irradiation) and in the test on Kv7.1/KCNE1 channels (non UV-activated) were 75% and 40%, respectively.

As to `CC(C)(Oc1cccc(C(F)(F)F)c1)C(=O)NC1C2CC3CC1CC(NS(C)(=O)=O)(C3)C2` (stereo not shown) [AC-3], 10 µM produced 73.7 ± 2.9% inhibition against Kv7.1/KCNE1 [1].
